Source: US20240083861A1, “HSD17B13 INHIBITORS AND USES THEREOF” (FL2022-001, Inc., priority 2020, published 2024)
Counter-ions that a name gives are not always drawn.

biological target: T1, Recombinant human HSD17B13 enzyme (Homo sapiens, UniProt Q7Z5P4); assay: HSD17b13 NAD(P)H-Glo biochemical assay; settings: 50 uM estradiol, 1 mM NAD+, NAD(P)H-Glo luminescence; read-out: HSD17β13 IC50
T1 sequence (Q7Z5P4 20-300): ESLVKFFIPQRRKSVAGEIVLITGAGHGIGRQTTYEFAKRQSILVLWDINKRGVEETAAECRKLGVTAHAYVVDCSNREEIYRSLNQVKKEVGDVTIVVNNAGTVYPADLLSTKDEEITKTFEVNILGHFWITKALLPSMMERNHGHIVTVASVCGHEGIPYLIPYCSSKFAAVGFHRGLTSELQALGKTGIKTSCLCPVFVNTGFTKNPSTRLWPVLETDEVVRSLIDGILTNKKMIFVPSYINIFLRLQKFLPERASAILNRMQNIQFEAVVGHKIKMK
Outline: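 Luminescent NAD(P)H-Glo read-out, taken after 1 hour at RT, measured cofactor reduction. Substrate and cofactor were estradiol at 50 uM and NAD+ at 1 mM final, reacted with the recombinant human enzyme for 3 hours at 37° C in 20 mM Tris pH7.4, 0.002% Tween-20, 0.02% BSA. Compound was pre-incubated with enzyme for 20 minutes at RT.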

IC50 [nM]	Compound
< 100	Cn1nc(-c2cc(C(F)(F)F)c(F)c(O)c2F)c2cnc(N3CCN(C(=O)Nc4ccccc4)CC3)cc21 [Compound 21.01, 4-(3-(2,4-Difluoro-3-hydroxy-5-(trifluoromethyl)phenyl)-1-methyl-1H-pyrazolo[4,3-c]pyridin-6-y1)-N-phenylpiperazine-1-carboxamide]
< 100	C[C@H]1CN(C(=O)Nc2ccccc2)CCN1c1cc2c(cn1)c(-c1cc(C(F)(F)F)c(F)c(O)c1F)nn2C [Compound 21.02, (S)-4-(3-(2,4-Difluoro-3-hydroxy-5-(trifluoromethyl)phenyl)-1-methyl-1H-pyrazolo[4,3-c]pyridin-6-y1)-3-methyl-N-phenylpiperazine-1-carboxamide]
< 100	Cn1nc(-c2cc(C(F)(F)F)c(F)c(O)c2F)c2cnc(N3CCN(C(=O)Nc4ccccc4)CC3(C)C)cc21 [Compound 21.03, 4-(3-(2,4-Difluoro-3-hydroxy-5-(trifluoromethyl)phenyl)-1-methyl-1H-pyrazolo[4,3-c]pyridin-6-y1)-3,3-dimethyl-N-phenylpiperazine-1-carboxamide]
< 100	Cn1nc(-c2cc(C(F)(F)F)c(F)c(O)c2F)c2cnc(N3CCN(C(=O)Nc4ccccc4)CC34CC4)cc21 [Compound 21.04, 4-(3-(2,4-Difluoro-3-hydroxy-5-(trifluoromethyl)phenyl)-1-methyl-1H-pyrazolo[4,3-c]pyridin-6-y1)-N-phenyl-4,7-diazaspiro[2.5]octane-7-carboxamide]
< 100	Cn1nc(-c2cc(C(F)(F)F)c(F)c(O)c2F)c2cnc(N3CCN(C(=O)Nc4ccccc4)CC34CCC4)cc21 [Compound 21.05, 5-(3-(2,4-Difluoro-3-hydroxy-5-(trifluoromethyl)phenyl)-1-methyl-1H-pyrazolo[4,3-c]pyridin-6-y1)-N-phenyl-5,8-diazaspiro[3.5]nonane-8-carboxamide]
< 100	C[C@H]1CN(c2cc3c(cn2)c(-c2cc(C(F)(F)F)c(F)c(O)c2F)nn3C)CCN1C(=O)Nc1ccccc1 [Compound 21.06, (S)-4-(3-(2,4-Difluoro-3-hydroxy-5-(trifluoromethyl)phenyl)-1-methyl-1H-pyrazolo[4,3-c]pyridin-6-y1)-2-methyl-N-phenylpiperazine-1-carboxamide]
< 100	C[C@@H]1CN(c2cc3c(cn2)c(-c2cc(C(F)(F)F)c(F)c(O)c2F)nn3C)CCN1C(=O)Nc1ccccc1 [Compound 21.07, (R)-4-(3-(2,4-Difluoro-3-hydroxy-5-(trifluoromethyl)phenyl)-1-methyl-1H-pyrazolo[4,3-c]pyridin-6-y1)-2-methyl-N-phenylpiperazine-1-carboxamide]
< 100	Cn1nc(-c2cc(C(F)(F)F)c(F)c(O)c2F)c2cnc(N3CCN(C(=O)Nc4ccccc4)C4(CC4)C3)cc21 [Compound 21.08, 7-(3-(2,4-Difluoro-3-hydroxy-5-(trifluoromethyl)phenyl)-1-methyl-1H-pyrazolo[4,3-c]pyridin-6-y1)-N-phenyl-4,7-diazaspiro[2.5]octane-4-carboxamide]

Further lines, the compound ahead of its results:

Compound	IC50 [nM]
Cn1nc(-c2cc(C(F)(F)F)c(F)c(O)c2F)c2cnc(N(Cc3ccccc3)C3CCOCC3)nc21 [Compound 19.02, 3-(6-(Benzyl(tetrahydro-2H-pyran-4-yl)amino)-1-methyl-1H-pyrazolo[3,4-d]pyrimidin-3-y1)-2,6-difluoro-5-(trifluoromethyl)phenol]	< 100
Cn1nc(-c2cc(C(F)(F)F)c(F)c(O)c2F)c2cnc(N3CCNC4(CCC4)C3)nc21 [Compound 20, 2,6-Difluoro-3-(1-methyl-6-(5,8-diazaspiro[3.5]nonan-8-yl)-1H-pyrazolo[3,4-d]pyrimidin-3-y1)-5-(trifluoromethyl)phenol HCl salt]	< 100
CNC(=O)N1CCN(c2ncc3c(-c4cc(C(F)(F)F)c(F)c(O)c4F)nn(C)c3n2)CC12CCC2 [Compound 20.01, 8-(3-(2,4-Difluoro-3-hydroxy-5-(trifluoromethyl)phenyl)-1-methyl-1H-pyrazolo[3,4-d]pyrimidin-6-yl)-N-methyl-5,8-diazaspiro[3.5]nonane-5-carboxamide]	< 100
CN(C)C(=O)N1CCN(c2ncc3c(-c4cc(C(F)(F)F)c(F)c(O)c4F)nn(C)c3n2)CC12CCC2 [Compound 20.02, 8-(3-(2,4-Difluoro-3-hydroxy-5-(trifluoromethyl)phenyl)-1-methyl-1H-pyrazolo[3,4-d]pyrimidin-6-yl)-N,N-dimethy1-5,8-diazaspiro[3.5]nonane-5-carboxamide]	< 100
COC(=O)N1CCN(c2ncc3c(-c4cc(C(F)(F)F)c(F)c(O)c4F)nn(C)c3n2)CC12CCC2 [Compound 20.03, Methyl 8-(3-(2,4-difluoro-3-hydroxy-5-(trifluoromethyl)phenyl)-1-methyl-1H-pyrazolo[3,4-d]pyrimidin-6-yl)-5,8-diazaspiro[3.5]nonane-5-carboxylate]	< 100
C[C@@H]1CN(C(=O)Nc2ccccc2)CCN1c1cc2c(cn1)c(-c1cc(C(F)(F)F)c(F)c(O)c1F)nn2C [Compound 21, (R)-4-(3-(2,4-Difluoro-3-hydroxy-5-(trifluoromethyl)phenyl)-1-methyl-1H-pyrazolo[4,3-c]pyridin-6-yl)-3-methyl-N-phenylpiperazine-1-carboxamide]	< 100
CN(c1cc2c(cn1)c(-c1nc(C(F)(F)F)c(F)c(O)c1F)nn2C)C1CCOCC1 [Compound 22, 3,5-Difluoro-2-(1-methyl-6-(methyl(tetrahydro-2H-pyran-4-yl)amino)-1H-pyrazolo[4,3-c]pyridin-3-yl)-6-(trifluoromethyl)pyridin-4-ol]	100 to 1000

same assay, conditions: at 30 uM compound; read-out: HSD17β13 % inhibition at 30 uM

Compound	inhibition at 30 µM [%]
O=C(NC1CCC1)c1ccc2oc(-c3cc(O)cc(C(F)(F)F)c3F)nc2c1 [Compound 23, N-Cyclobuty1-2-(2-fluoro-5-hydroxy-3-(trifluoromethyl)phenyl)benzo[d] oxazole-5-carboxamide]	20
O=C(NC12CC(C1)C2)c1ccc2oc(-c3c(F)cc(F)c(O)c3F)nc2c1 [Compound 23.01, N-(Bicyclo[1.1.1]pentan-1-y1)-2-(2,4,6-trifluoro-3-hydroxyphenyl)benzo[d]oxazole-5-carboxamide]	< 20
